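The compound was tested at five concentrations on cells cultured in 96-well plates, with a 48-hour exposure period. GI50: concentration for 50% inhibition of growth.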 The source made the active and inactive calls. No stated cut-off is given here; in the data, active = GI50 up to about 1.1 µM and inactive = higher.
How the values were obtained:
Assay in all cases: NCI tumour cell line growth inhibition, 48 h
SK-MEL-28 = test system: SK-MEL-28
HCT-15 = test system: HCT-15
SK-MEL-5 = test system: SK-MEL-5
NCI-H460 = test system: NCI-H460
A549 = test system: A549
IGROV-1 = test system: IGROV-1
TK-10 = test system: TK-10
NCI/ADR-RES = test system: NCI/ADR-RES
SF-268 = test system: SF-268
SNB-75 = test system: SNB-75
SW-620 = test system: SW-620
A498 = test system: A498
CCRF-CEM = test system: CCRF-CEM
HOP-92 = test system: HOP-92
OVCAR-8 = test system: OVCAR-8
HCT-116 = test system: HCT-116
HOP-62 = test system: HOP-62
CAKI-1 = test system: CAKI-1
SR = test system: SR
RPMI-8226 = test system: RPMI-8226

SMILES	GI50 (SK-MEL-28)	GI50 (HCT-15)	GI50 (SK-MEL-5)	GI50 (NCI-H460)	GI50 (A549)	GI50 (IGROV-1)	GI50 (TK-10)	GI50 (NCI/ADR-RES)	GI50 (SF-268)	GI50 (SNB-75)	GI50 (SW-620)	GI50 (A498)	GI50 (CCRF-CEM)	GI50 (HOP-92)	GI50 (OVCAR-8)	GI50 (HCT-116)	GI50 (HOP-62)	GI50 (CAKI-1)	GI50 (SR)	GI50 (RPMI-8226)
O=C1C(Cl)=C(Sc2nnc3c4ccccc4c4ccccc4c3n2)C(=O)c2ccccc21	21.8 µM (inactive)	19 µM	7.8 µM (inactive)	17.8 µM (inactive)	24.6 µM (inactive)	1.08 µM (active)	22 µM (inactive)	25.5 µM (inactive)	27.5 µM (inactive)	2.97 µM (inactive)	23.1 µM (inactive)	20.3 µM (inactive)	3.78 µM (inactive)	16.9 µM (inactive)	8.47 µM (inactive)	16 µM (inactive)	16.7 µM (inactive)	17 µM (inactive)	7.43 µM (inactive)	13.7 µM (inactive)
CCc1c(O)c2c(c(O)c1C(C)=O)C(=O)c1c(cc(O)c(C(=O)O)c1C(=O)O)C2=O	> 100 µM (inactive)	> 100 µM	> 100 µM (inactive)	> 100 µM (inactive)	> 100 µM (inactive)	> 100 µM (inactive)	> 100 µM (inactive)	> 100 µM (inactive)	> 100 µM (inactive)	> 100 µM (inactive)	> 100 µM (inactive)	> 100 µM (inactive)	> 100 µM (inactive)	> 100 µM (inactive)	> 100 µM (inactive)	> 100 µM (inactive)	> 100 µM (inactive)	> 100 µM (inactive)	> 100 µM (inactive)	> 100 µM (inactive)
Nc1nc(SCc2ccccc2Cl)cc(C(=O)O)n1	87.3 µM (inactive)	41.9 µM	76.9 µM (inactive)	41.5 µM (inactive)	> 100 µM (inactive)	> 100 µM (inactive)	> 100 µM (inactive)	33.4 µM (inactive)	52.7 µM (inactive)	> 100 µM (inactive)	70.6 µM (inactive)	> 100 µM (inactive)	32.2 µM (inactive)	46.2 µM (inactive)	46.9 µM (inactive)	54.5 µM (inactive)	63.1 µM (inactive)	> 100 µM (inactive)	39 µM (inactive)	54.1 µM (inactive)
CCN1C/C(=C\c2cc(OC)c(OC)c(OC)c2)C2=NN(c3ccccc3)C(c3cc(OC)c(OC)c(OC)c3)C2C1 (stereo not given)	0.871 µM (active)	5.58 µM	3.74 µM (inactive)	1.06 µM (active)	1.5 µM (inactive)	6.43 µM (inactive)	1.65 µM (inactive)	1.43 µM (inactive)	0.365 µM (active)	0.268 µM (active)	2.56 µM (inactive)	17.1 µM (inactive)	1.81 µM (inactive)	2.92 µM (inactive)	1.61 µM (inactive)	1.89 µM (inactive)	0.855 µM (active)	0.91 µM (active)	2.03 µM (inactive)	1.13 µM (inactive)
CC1CC[C@@]2(OC1)O[C@H]1C[C@H]3[C@@H]4CC[C@H]5C[C@@H](OC6OC(CO)C(OC7OC(CO)C(OC8OC(CO)C(O)C(OC9OC(C)C(OC%10OC(C)C(O)C(O)C%10O)C(O)C9O)C8OC8OCC(O)C(O)C8O)C(O)C7O)C(O)C6O)CC[C@]5(C)[C@H]4CC(=O)[C@]3(C)[C@H]1[C@@H]2C (stereo not given in full)	18.1 µM (inactive)	19.1 µM	16.8 µM (inactive)	17.8 µM (inactive)	23.2 µM (inactive)	20.5 µM (inactive)	17.7 µM (inactive)	23.7 µM (inactive)	25.6 µM (inactive)	19.8 µM (inactive)	20.3 µM (inactive)	18.2 µM (inactive)	12.2 µM (inactive)	19 µM (inactive)	20.7 µM (inactive)	23.4 µM (inactive)	21.4 µM (inactive)	15.6 µM (inactive)	14.6 µM (inactive)	16.2 µM (inactive)
